Values after ≈ are worked out from the molar mass of the structure shown. Read-outs that look alike come from different tables or passages of the source.
What was measured:
[1] = system: S. pneumoniae 1629; test: MIC against S. pneumoniae 1629, alone and with subinhibitory concentrations of a second agent; format: cell-based, Streptococcus pneumoniae; conditions: for MIC, antibiotic with 0.06 ug/mL (¼ MIC) of Compound (1b) / MIC, antibiotic alone / Compound (1b) fold decrease MIC / fold decrease MIC, antibiotic with 0.06 ug/mL (¼ MIC) of Compound (1b) / MIC, antibiotic with […] (½ MIC) of Compound (1b) / fold decrease MIC, antibiotic with […] (½ MIC) of Compound (1b): S. pneumoniae 1629; for MIC, antibiotic with 0.06 ug/mL (¼ MIC) of Compound (1b) / fold decrease MIC, antibiotic with 0.06 ug/mL (¼ MIC) of Compound (1b): +0.06 ug/mL Compound (1b); for MIC, antibiotic alone: single agent; for MIC: Streptococcus pneumoniae, 1629, S. pneumoniae 1629
[2] = system: H. influenzae Q1; test: MIC against H. influenzae Q1, alone and with subinhibitory concentrations of a second agent; format: cell-based, Haemophilus influenzae;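 note: combinations paired PDF inhibitors with macrolides, one class added below its own MIC to test whether the MIC of the other class dropped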
[3] = system: S. aureus WCUH29; test: MIC against S. aureus WCUH29, alone and with subinhibitory concentrations of a second agent; format: cell-based, Staphylococcus aureus; conditions: for MIC, antibiotic with 1 ug/mL (½ MIC) of Compound (1a) / MIC, antibiotic alone / MIC, antibiotic with 0.5 ug/mL (¼ MIC) of Compound (1a) / fold decrease MIC, antibiotic with 0.5 ug/mL (¼ MIC) of Compound (1a) / fold decrease MIC, antibiotic with 1 ug/mL (½ MIC) of Compound (1a): S. aureus WCUH29; for MIC, antibiotic with 1 ug/mL (½ MIC) of Compound (1a) / fold decrease MIC, antibiotic with 1 ug/mL (½ MIC) of Compound (1a): +1 ug/mL Compound (1a); for MIC, antibiotic alone: single agent; for decrease of MIC by subinhibitory concentrations of Compound (1a): S. aureus, Example 3; for MIC: Staphylococcus aureus, WCUH29, S. aureus WCUH29, no second agent, read-out: MIC, single agent; for MIC, antibiotic with 0.5 ug/mL (¼ MIC) of Compound (1a) / fold decrease MIC, antibiotic with 0.5 ug/mL (¼ MIC) of Compound (1a): +0.5 ug/mL Compound (1a)
[4] = system: S. aureus strain PK1; test: MIC against S. aureus strain PK1, alone and in combination; format: cell-based, Staphylococcus aureus
Description: (§1) Subinhibitory Concentrations of PDF Inhibitors Decrease the MICs of Macrolides against Representative S. aureus Strains
(§2) Subinhibitory Concentrations of Macrolides Decrease the MICs of PDF Inhibitors against Representative S. aureus Strains

[5] = system: S. aureus strain RN4220; test: MIC against S. aureus strain RN4220, alone and in combination; format: cell-based, Staphylococcus aureus
[6] = system: S. aureus strain Oxford; test: MIC against S. aureus strain Oxford, alone and in combination; format: cell-based, Staphylococcus aureus
Description: as §1, §2

[7] = system: S. aureus strain Smith; test: MIC against S. aureus strain Smith, alone and in combination; format: cell-based, Staphylococcus aureus
[8] = no second agent, read-out: MIC, single agent
[9] = H. influenzae Q1, +0.5 ug/mL Compound (1a)
[10] = H. influenzae Q1, +1 ug/mL Compound (1a)
[11] = H. influenzae Q1, single agent (Example 7)
[12] = Staphylococcus aureus, macrolide alone, read-out: MIC, −Compound (1a)
[13] = H. influenzae Q1, +0.25 ug/m Azithromycin
[14] = H. influenzae Q1, +0.5 ug/mL Azithromycin

| decrease of MIC by subinhibitory concentrations of Compound (1b) ([1]; S. pneumoniae) | MIC, antibiotic with 0.06 ug/mL (¼ MIC) of Compound (1b) [1] | MIC, antibiotic alone [1] | MIC [1, 8] | MIC, antibiotic with 0.5 ug/mL (¼ MIC) of Compound (1a) [2, 9] | MIC, antibiotic with 1 ug/mL (½ MIC) of Compound (1a) [2, 10] | MIC, antibiotic alone [2, 11] | MIC, antibiotic with 1 ug/mL (½ MIC) of Compound (1a) [3] | MIC, antibiotic alone [3] | decrease of MIC by subinhibitory concentrations of Compound (1a) [3] | MIC [3] | fold decrease MIC, antibiotic with 0.06 ug/mL (¼ MIC) of Compound (1b) [1] | MIC, antibiotic with […] (½ MIC) of Compound (1b) [1] | fold decrease MIC, antibiotic with […] (½ MIC) of Compound (1b) [1] | MIC, antibiotic with 0.5 ug/mL (¼ MIC) of Compound (1a) [3] | fold decrease MIC, antibiotic with 0.5 ug/mL (¼ MIC) of Compound (1a) [3] | fold decrease MIC, antibiotic with 1 ug/mL (½ MIC) of Compound (1a) [3] | Compound | further results |
| --- | --- | --- | --- | --- | --- | --- | --- | --- | --- | --- | --- | --- | --- | --- | --- | --- | --- | --- |
| 4-16 fold | 0.008 µg/mL | 0.03 µg/mL (≈ 0.0409 µM) | 0.03 µg/mL (≈ 0.0409 µM) | 2 µg/mL | 1 µg/mL | 8 µg/mL (≈ 10.9 µM) | 0.016 µg/mL | 0.25 µg/mL (≈ 0.341 µM) | 2-16 fold | 0.25 µg/mL (≈ 0.341 µM) | – | – | – | – | – | – | CC[C@H]1OC(=O)[C@H](C)[C@@H](O[C@H]2C[C@@](C)(OC)[C@@H](O)[C@H](C)O2)[C@H](C)[C@@H](O[C@@H]2O[C@H](C)C[C@H](N(C)C)[C@H]2O)[C@](C)(O)C[C@@H](C)C(=O)[C@H](C)[C@@H](O)[C@]1(C)O [Erythromycin, erythromycin] | – |
| no effect | 0.5 µg/mL | 0.5 µg/mL (≈ 0.999 µM) | 0.5 µg/mL (≈ 0.999 µM) | – | – | – | 0.125 µg/mL | 0.125 µg/mL (≈ 0.25 µM) | no effect | – | [0] fold | 0.5 µg/mL | [0] fold | 0.125 µg/mL | [0] fold | [0] fold | C/C(=C\C(=O)OCCCCCCCCC(=O)O)C[C@@H]1OC[C@H](C[C@@H]2O[C@H]2[C@@H](C)[C@H](C)O)[C@@H](O)[C@H]1O [Mupirocin, mupirocin] | – |

The next lines start with the compound.

| Compound | decrease of MIC by subinhibitory concentrations of Compound (1b) ([1]; S. pneumoniae) | MIC, antibiotic with 0.06 ug/mL (¼ MIC) of Compound (1b) [1] | MIC, antibiotic alone [1] | MIC [1, 8] | MIC, antibiotic with 0.5 ug/mL (¼ MIC) of Compound (1a) [2, 9] | MIC, antibiotic with 1 ug/mL (½ MIC) of Compound (1a) [2, 10] | MIC, antibiotic alone [2, 11] | MIC, antibiotic with 1 ug/mL (½ MIC) of Compound (1a) [3] | MIC, antibiotic alone [3] | decrease of MIC by subinhibitory concentrations of Compound (1a) [3] | MIC [3] | fold decrease MIC, antibiotic with 0.06 ug/mL (¼ MIC) of Compound (1b) [1] | MIC, antibiotic with […] (½ MIC) of Compound (1b) [1] | fold decrease MIC, antibiotic with […] (½ MIC) of Compound (1b) [1] | MIC, antibiotic with 0.5 ug/mL (¼ MIC) of Compound (1a) [3] | fold decrease MIC, antibiotic with 0.5 ug/mL (¼ MIC) of Compound (1a) [3] | fold decrease MIC, antibiotic with 1 ug/mL (½ MIC) of Compound (1a) [3] | further results |
| --- | --- | --- | --- | --- | --- | --- | --- | --- | --- | --- | --- | --- | --- | --- | --- | --- | --- | --- |
| CC[C@H]1OC(=O)[C@H](C)[C@@H](O[C@H]2C[C@@](C)(OC)[C@@H](O)[C@H](C)O2)[C@H](C)[C@@H](O[C@@H]2O[C@H](C)C[C@H](N(C)C)[C@H]2O)[C@](C)(O)C[C@@H](C)CN(C)[C@H](C)[C@@H](O)[C@]1(C)O [Azithromycin, azithromycin] | 2-8 fold | 0.016 µg/mL | 0.03 µg/mL (≈ 0.0401 µM) | 0.03 µg/mL (≈ 0.0401 µM) | 0.25 µg/mL | – | 1 µg/mL (≈ 1.34 µM) | 0.03 µg/mL | 1 µg/mL (≈ 1.34 µM) | 8-32 fold | 1 µg/mL (≈ 1.34 µM) | – | – | – | – | – | – | MIC [4, 12]: > 64 µg/mL; MIC, +Compound (1a) [¼ × MIC] ([4]; with ¼ × MIC of Compound (1a)): 32 µg/mL; MIC, +Compound (1a) [½ × MIC] ([4]; with ½ × MIC of Compound (1a)): 16 µg/mL; MIC [5, 12]: 1 µg/mL; MIC, +Compound (1a) [¼ × MIC] ([5]; with ¼ × MIC of Compound (1a)): 0.25 µg/mL; MIC [6, 12]: 0.5 µg/mL; MIC, +Compound (1a) [¼ × MIC] ([6]; with ¼ × MIC of Compound (1a)): 0.25 µg/mL; MIC, +Compound (1a) [½ × MIC] ([6]; with ½ × MIC of Compound (1a)): 0.06 µg/mL; MIC [7, 12]: 1 µg/mL; MIC, +Compound (1a) [¼ × MIC] ([7]; with ¼ × MIC of Compound (1a)): 0.25 µg/mL |
| O=CN(O)C[C@@H](CC1CCCC1)C(=O)NNc1nc(N2CCOCC2)cc(C(F)(F)F)n1 [Compound (1b), N-hydroxy-N-((2R)-2-(cyclopentylmethyl)-3-{N′-[4-(morpholin-4-yl)-6-(trifluoromethyl)-pyrimidin-2-yl]-hydrazino}-3-oxopropyl)-formamide] | – | – | – | 0.25 µg/mL (≈ 0.543 µM) | – | – | – | – | – | – | – | – | – | – | – | – | – | decrease of MIC by subinhibitory concentrations of azithromycin ([1]; S. pneumoniae): 4-16 fold; decrease of MIC by subinhibitory concentrations of erythromycin ([1]; S. pneumoniae): 8-32 fold; effect of subinhibitory concentrations of ciprofloxacin on antibacterial potency ([1]; S. pneumoniae): no effect; effect of subinhibitory concentrations of mupirocin on antibacterial potency ([1]; S. pneumoniae): no effect; Compound (1b) fold decrease MIC ([1]; +Azithromycin 0.008 μg/ml {¼ × MIC}): [4] fold; Compound (1b) fold decrease MIC ([1]; +Azithromycin […] {½ × MIC}): [16] fold; Compound (1b) fold decrease MIC ([1]; +Ciprofloxacin 0.25 μg/ml {½ × MIC}): [0] fold; Compound (1b) fold decrease MIC ([1]; +Ciprofloxacin […] {¼ × MIC}): [0] fold; Compound (1b) fold decrease MIC ([1]; +Erythromycin 0.008 μg/ml {¼ × MIC}): [8] fold; Compound (1b) fold decrease MIC ([1]; +Erythromycin […] {½ × MIC}): [32] fold; Compound (1b) fold decrease MIC ([1]; +Mupirocin 0.25 μg/ml {½ × MIC}): [0] fold; Compound (1b) fold decrease MIC ([1]; +Mupirocin […] {¼ × MIC}): [0] fold; MIC ([1]; +Azithromycin 0.008 μg/ml {¼ × MIC}, read-out: Compound (1b) MIC): 0.06 µg/mL (≈ 0.13 µM); MIC ([1]; +Azithromycin […] {½ × MIC}, read-out: Compound (1b) MIC): 0.016 µg/mL (≈ 0.0347 µM); MIC ([1]; +Ciprofloxacin 0.25 μg/ml {½ × MIC}, read-out: Compound (1b) MIC): 0.25 µg/mL (≈ 0.543 µM); MIC ([1]; +Ciprofloxacin […] {¼ × MIC}, read-out: Compound (1b) MIC): 0.25 µg/mL (≈ 0.543 µM); MIC ([1]; +Erythromycin 0.008 μg/ml {¼ × MIC}, read-out: Compound (1b) MIC): 0.03 µg/mL (≈ 0.0652 µM); MIC ([1]; +Erythromycin […] {½ × MIC}, read-out: Compound (1b) MIC): 0.008 µg/mL (≈ 0.0174 µM); MIC ([1]; +Mupirocin 0.25 μg/ml {½ × MIC}, read-out: Compound (1b) MIC): 0.25 µg/mL (≈ 0.543 µM); MIC ([1]; +Mupirocin […] {¼ × MIC}, read-out: Compound (1b) MIC): 0.25 µg/mL (≈ 0.543 µM) |
| CCCCC[C@H](CN(O)C=O)C(=O)NNc1nnc2cccc(C)c2n1 [Compound (1c), N-hydroxy((2R)-2-{[2-(5-methyl-1,2,4-benzotriazin-3-yl)hydrazino]carbonyl}heptyl)formamide] | – | – | – | – | – | – | – | – | – | – | – | – | – | – | – | – | – | MIC, antibiotic with 0.25 ug/m (¼ MIC) of Azithromycin [2, 13]: 0.5 µg/mL; fold decrease MIC, antibiotic with 0.25 ug/m (¼ MIC) of Azithromycin [2, 13]: [2] fold; MIC, antibiotic with 0.5 ug/mL (½ MIC) of Azithromycin [2, 14]: 0.125 µg/mL; fold decrease MIC, antibiotic with 0.5 ug/mL (½ MIC) of Azithromycin [2, 14]: [8] fold; MIC, antibiotic alone ([2]; H. influenzae Q1, single agent (Example 8)): 1 µg/mL (≈ 2.77 µM) |
| O=C(O)c1cn(C2CC2)c2cc(N3CCNCC3)c(F)cc2c1=O [Ciprofloxacin, ciprofloxacin] | no effect | 0.5 µg/mL | 0.5 µg/mL (≈ 1.51 µM) | 0.5 µg/mL (≈ 1.51 µM) | 0.008 µg/mL | 0.008 µg/mL | 0.008 µg/mL (≈ 0.0241 µM) | 0.25 µg/mL | 0.25 µg/mL (≈ 0.754 µM) | no effect | 0.25 µg/mL (≈ 0.754 µM) | [0] fold | 0.5 µg/mL | [0] fold | 0.25 µg/mL | [0] fold | [0] fold | fold decrease MIC, antibiotic with 0.5 ug/mL (¼ MIC) of Compound (1a) [2, 9]: [0] fold; fold decrease MIC, antibiotic with 1 ug/mL (½ MIC) of Compound (1a) [2, 10]: [0] fold; decrease of MIC by subinhibitory concentrations of Compound (1a) ([2]; H. influenzae, text summary of Example 7): no effect |

Reference: patent publication US20080161249A1, “Use of Novel Antibacterial Compounds” (SMITHKLINE BEECHAM CORPORATION, priority 2004, published 2008)
